According to patent US8871681B2, “Herbicidal compositions comprising 4-amino-3-chloro-5-fluoro-6-(4-chloro-2-fluoro-3-methoxyphenyl) pyridine-2-carboxylic acid or a derivative thereof and certain sulfonylureas” (Dow AgroSciences LLC, priority 2012, dated 2014):

How the values were obtained:
[1] = tested on: CYPRO (Cyperus rotundus, purple nutsedge); assay: In-water applied weed control, transplanted paddy rice, greenhouse (Example II); assay type: in vivo, Cyperus rotundus L.
Experimental: Weed seeds or nutlets of the desired test plant species were planted in puddled soil (mud) prepared by mixing a shredded, non-sterilized mineral soil (50.5 percent silt, 25.5 percent clay, and 24 percent sand, with a pH of about 7.6 and an organic matter content of about 2.9 percent) and water at a 1:1 volumetric ratio. The prepared mud was dispensed in 365 mL aliquots into 16-ounce (oz.) non-perforated plastic pots with a surface area of 86.59 square centimeters (cm^2) leaving a headspace of 3 centimeters (cm) in each pot. Rice seeds were planted in Sun Gro MetroMix® 306 planting mixture, which typically has a pH of 6.0 to 6.8 and an organic matter content of about 30 percent, in plastic plug trays. Seedlings at the second or third leaf stage of growth were transplanted into 860 mL of mud contained in 32-oz. non-perforated plastic pots with a surface area of 86.59 cm^2 4 days prior to herbicide application. The paddy was created by filling the headspace of the pots with 2.5 to 3 cm of water. When required to ensure good germination and healthy plants, a fungicide treatment and/or other chemical or physical treatment was applied. The plants were grown for 4-22 days in a greenhouse with an approximate 14 h photoperiod which was maintained at about 29′C during the day and 26° C. during the night. Nutrients were added as Osmocote® (19:6:12, N:P:K+minor nutrients) at 2 g per 16-oz. pot and 4 g per 32-oz. pot. Water was added on a regular basis to maintain the paddy flood, and supplemental lighting was provided with overhead metal halide 1000-Watt lamps as necessary. The plants were employed for testing when they reached the first through fourth true leaf stage.
(§1) Treatments consisted of the acid or esters of 4-amino-3-chloro-5-fluoro-6-(4-chloro-2-fluoro-3-methoxy-phenyl)pyridine-2-carboxylic acid (compound A) each formulated as an SC and various herbicidal components alone and in combination. Forms of compound A were applied on an acid equivalent basis.
Other herbicidal components were applied on an active ingredient basis and included acetolactate synthase (ALS)-inhibiting herbicides (sulfonylurea chemical class), azimsulfuron formulated as Gulliver®, bensulfuron-methyl formulated as Londax® 60DF, cyclosulfamuron (technical grade materail), ethoxysulfuron formulated as Sunrice® 15 WDG, flucetosulfuron formulated as Sukedachi® 1KG G, imazosulfuron formulated as Brazzos®, metsulfuron-methyl formulated as Lorate®, nicosulfuron formulated as Accent®, orthosulfamuron formulated as Strada® WG, propyrisulfuron formulated as Zeta One®, and rimsulfuron formulated as Matrix® WG.
Treatment requirements for each compound or herbicidal component were calculated based upon the rates being tested, the concentration of active ingredient or acid equivalent in the formulation, an application volume of 2 mL per component per pot, and an application area of 86.59 cm^2 per pot.
For formulated compounds, a measured amount was placed in an individual 100 or 200 mL glass vial and was dissolved in a volume of 1.25% (v/v) Agri-Dex® crop oil concentrate to obtain application solutions.
For technical grade compounds, a weighed amount was placed in an individual 100 to 200 mL glass vial and was dissolved in a volume of acetone to obtain concentrated stock solutions. […] The concentrated stock solutions obtained were diluted with an equivalent volume of an aqueous mixture containing 2.5% (v/v) crop oil concentrate so that the final application solutions contained 1.25% (v/v) crop oil concentrate.
Applications were made by injecting with a pipetter appropriate amounts of the application solutions, individually and sequentially, into the aqueous layer of the paddy. Control plants were treated in the same manner with the solvent blank. Applications were made so that all treated plant material received the same concentrations of acetone and crop oil concentrate. […]

[2] = tested on: SCPJU (Schoenoplectus juncoides, Japanese bulrush); assay: Postemergence foliar-applied weed control, direct seeded rice, greenhouse (Example I); assay type: in vivo, Schoenoplectus juncoides (Roxb.) Palla; conditions: 21 DAA
Description: Seeds or nutlets of the desired test plant species were planted in a soil matrix prepared by mixing a loam or sandy loam soil (e.g., 28.6 percent silt, 18.8 percent clay, and 52.6 percent sand, with a pH of about 5.8 and an organic matter content of about 1.8 percent) and calcareous grit in an 80 to 20 ratio. The soil matrix was contained in plastic pots with a volume of 1 quart and a surface area of 83.6 square centimeters (cm^2). When required to ensure good germination and healthy plants, a fungicide treatment and/or other chemical or physical treatment was applied. The plants were grown for 8-22 days in a greenhouse with an approximate 14 h photoperiod which was maintained at about 29° C. during the day and 26° C. during the night. Nutrients (Peters Excel® 15-5-15 5-Ca 2-Mg and iron chelate) were applied in the irrigation solution as needed and water was added on a regular basis. Supplemental lighting was provided with overhead metal halide 1000-Watt lamps as necessary. The plants were employed for testing when they reached the first through fourth true leaf stage.
as §1, with “(Compound A),” for “(compound A)”, “SC,” for “SC”, “basis. […]” for “basis.”
Treatment requirements were calculated based upon the rates being tested, the concentration of active ingredient or acid equivalent in the formulation, and a 12 mL application volume at a rate of 187 L/ha.
For treatments comprised of formulated compounds, measured amounts of compounds were placed individually in 25 mL glass vials and diluted in a volume of 1.25% (v/v) Agri-Dex® crop oil concentrated to obtain 12× stock solutions. […]
For treatments comprised of formulated and technical compounds, weighed amounts of the technical materials were placed individually in 25 mL glass vials and dissolved in a volume of 97:3 v/v acetone/DMSO to obtain 12× stock solutions, and measured amounts of the formulated compounds were placed individually in 25 mL glass vials and diluted in a volume of 1.25% (v/v) crop oil concentrate to obtain 12× stock solutions. […]

COc1c(Cl)ccc(-c2nc(C(=O)O)c(Cl)c(N)c2F)c1F [Compound A Acid, 4-amino-3-chloro-5-fluoro-6-(4-chloro-2-fluoro-3-methoxy-phenyl)pyridine-2-carboxylic acid]
Visual Weed Control (%) - 20 DAA CYPRO Obs ([1]; Table 43, 10.6 gae/ha alone): 10%
Visual Weed Control (%) - 20 DAA CYPRO Obs ([1]; Table 43, 21.2 gae/ha alone): 20%
Visual Weed Control (%) - 20 DAA CYPRO Obs ([1]; Table 49, 10.6 gae/ha alone): 10%
Visual Weed Control (%) - 20 DAA CYPRO Obs ([1]; Table 49, 21.2 gae/ha alone): 20%
Visual Weed Control (%) - 20 DAA CYPRO Obs ([1]; Table 49, 42.4 gae/ha alone): 95%

COCC(=O)OC(c1ncccc1S(=O)(=O)NC(=O)Nc1nc(OC)cc(OC)n1)C(C)F (stereo not drawn) [Flucetosulfuron, 1-[3-[[[[(4,6-dimethoxy-2-pyrimidinyl)amino]carbonyl]amino]sulfonyl]-2-pyridinyl]-2-fluoropropyl 2-methoxyacetate]
Visual Weed Control (%) Obs ([2]; 0.05 gai/ha): 95%
Visual Weed Control (%) Obs ([2]; 0.1 gai/ha): 50%
Visual Weed Control (%) Obs ([2]; 0.2 gai/ha): 30%

COc1c(Cl)ccc(-c2nc(C(=O)OCc3ccccc3)c(Cl)c(N)c2F)c1F [Compound A Benzyl Ester]
Visual Weed Control (%) - 20 DAA CYPRO Obs ([1]; Table 50, 4.38 gae/ha alone): 50%
Visual Weed Control (%) - 20 DAA CYPRO Obs ([1]; Table 50, 8.75 gae/ha alone): 0%
Visual Weed Control (%) - 20 DAA CYPRO Obs ([1]; Table 50, 17.5 gae/ha alone): 90%
Visual Weed Control (%) Obs ([2]; 4.38 gae/ha): 40%
